Measurements reported in patent US9670133B2, “Mixtures of cannabinoid compounds, and production and use thereof” (priority 2013, dated 2017).

Key:
CB1 receptors [1] = target: T1, CB1 receptors (Homo sapiens, UniProt P21554); experiment: biochemical; format: binding; set-up: purchased RBHCB1M400UA; host or cells: human cells (transfected); conditions: for Ki: dissociation constant, mean +/- SEM, competition with [3H]-CP55940; for CB1 (% binding): screening with a single high dose, displacement of [3H]-CP55940
T1 sequence (P21554 whole entry): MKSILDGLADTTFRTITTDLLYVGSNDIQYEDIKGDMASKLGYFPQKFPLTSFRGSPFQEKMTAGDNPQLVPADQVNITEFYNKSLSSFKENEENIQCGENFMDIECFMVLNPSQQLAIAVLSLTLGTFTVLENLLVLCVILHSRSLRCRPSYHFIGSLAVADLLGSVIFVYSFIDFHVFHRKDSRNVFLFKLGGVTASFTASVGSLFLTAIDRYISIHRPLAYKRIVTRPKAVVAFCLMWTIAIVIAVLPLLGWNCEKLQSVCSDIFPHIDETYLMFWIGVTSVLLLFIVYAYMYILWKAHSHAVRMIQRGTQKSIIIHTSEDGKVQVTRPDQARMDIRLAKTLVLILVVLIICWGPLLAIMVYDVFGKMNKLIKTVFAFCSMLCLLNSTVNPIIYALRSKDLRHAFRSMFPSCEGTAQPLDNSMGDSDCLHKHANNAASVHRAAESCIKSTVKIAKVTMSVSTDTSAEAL

CB1 receptors [2] = target: T1, CB1 receptors; experiment: Signal transduction in CHO-CB1-CREluc cells (luciferase; agonism, and antagonism against WIN); conditions: for Effect on CB1 receptor (in words): text statement
CB2 receptors [3] = target: T2, CB2 receptors (Homo sapiens, UniProt P34972); experiment: Signal transduction in CHO-CB2-CREluc cells (luciferase; forskolin, AM630); conditions: for Effect on CB2 receptor (in words): text statement
T2 sequence (P34972 whole entry): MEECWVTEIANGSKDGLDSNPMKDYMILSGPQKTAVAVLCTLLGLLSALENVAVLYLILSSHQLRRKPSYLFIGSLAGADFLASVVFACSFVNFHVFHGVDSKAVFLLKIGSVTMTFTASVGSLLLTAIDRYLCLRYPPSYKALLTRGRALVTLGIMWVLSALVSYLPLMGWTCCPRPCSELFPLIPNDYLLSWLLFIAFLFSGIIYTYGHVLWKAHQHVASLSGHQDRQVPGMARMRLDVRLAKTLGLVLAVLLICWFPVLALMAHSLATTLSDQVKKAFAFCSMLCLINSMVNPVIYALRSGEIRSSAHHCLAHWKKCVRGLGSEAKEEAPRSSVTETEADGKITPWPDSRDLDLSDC

NFAT = experiment: Jurkat T cell model, NFAT dependent luciferase activation by PMA plus ionomycin; format: cell-based; conditions: luciferase construct
Procedure: (§1) Substances according to the invention were investigated in an accepted Jurkat T cell model. The underlying mechanism is based on the fact that the transcriptional activity of lymphokines, such as e.g. the one of IL-2, is based on the coordinated activation of different transcription factors, such as e.g. NFAT and NF-κB. The effect of the substances according to the invention on said factors was evaluated in-vitro with the aid of a luciferase-coupled construct (KBF-luc). Thereby, an activation of transiently transfected cells (Jurkat T cells) through PMA (plus ionomycin in case of NFAT activation), driven by a NF-κB or NFAT dependent promoter, leads to a strong induction of luciferase gene expression. The inhibition of the luciferase activity was measured as a function of the dose rate of the substance according to the invention. A knowledgeable person skilled in the art can easily follow such procedure from the literature (e.g. in Yuan et al. (2002), Sancho et al. (2003), Do et al. (2004) and Cencioni et al. (2010)).

CB2 receptors [4] = target: T2, CB2 receptors; experiment: Competition binding study with [3H]-CP55940 in CB2 receptor transfected cell membranes; set-up: purchased RBXCB2M400UA; host or cells: human cells (transfected); conditions: for Ki: dissociation constant, mean +/- SEM, competition with [3H]-CP55940; for Ki (CB1): Ki (CB2) Selectivity for CB2 in comparison to CB1 (rounded): ratio of Ki values; for CB2 (% binding): screening with a single high dose, displacement of [3H]-CP55940
NF-κB = experiment: Jurkat T cell model, NF-κB dependent luciferase activation by PMA; format: cell-based; conditions: luciferase construct
Procedure: as §1

[5] = listed as Glyceryl cannabidiolate
[6] = listed as N-Methyl-sulfonyl cannabidiolate
[7] = listed as 2-Hydroxyethyl cannabidiolate

| Compound | Ki (CB1 receptors [1]) | CB1 (% binding) (CB1 receptors [1]) | Agonism and antagonism at CB1 (CB1 receptors [2]) | Effect on CB1 receptor (in words) (CB1 receptors [2]) | Agonism and antagonism at CB2 (CB2 receptors [3]) | Effect on CB2 receptor (in words) (CB2 receptors [3]) | Inhibition of NFAT dependent activation of T cells (NFAT) | Ki (CB2 receptors [4]) | Ki (CB1): Ki (CB2) Selectivity for CB2 in comparison to CB1 (rounded) (CB2 receptors [4]) | CB2 (% binding) (CB2 receptors [4]) | Effect on CB1 receptor (in words) (CB1 receptors [2]; [5]) | Effect on CB2 receptor (in words) (CB2 receptors [3]; [5]) | Binding to CB2 receptors (in words) (CB2 receptors [4]) | Binding to CB1 receptors (in words) (CB1 receptors [1]) | Effect on CB1 receptor (in words) (CB1 receptors [2]; [6]) | Effect on CB2 receptor (in words) (CB2 receptors [3]; [6]) | Inhibition of NF-κB dependent activation of T cells (NF-κB) | Effect on CB1 receptor (in words) (CB1 receptors [2]; [7]) | Effect on CB2 receptor (in words) (CB2 receptors [3]; [7]) | Effect on CB1 receptor (in words) (CB1 receptors [2]; listed as cyclohexyl cannabidiolate) |
| --- | --- | --- | --- | --- | --- | --- | --- | --- | --- | --- | --- | --- | --- | --- | --- | --- | --- | --- | --- | --- |
| C=C(C)[C@@H]1CCC(C)=C[C@H]1c1c(O)cc(CCCCC)c(C(=O)OCC(O)CCC)c1O (some centres unmarked) [Compound V, 2-hydroxypentyl cannabidiolate] | 538 ± 53.9 nM | 82.0 ± 8.0% | − | CB1 antagonists | + | CB2 agonists |  |  |  |  |  |  |  |  |  |  |  |  |  |  |
| C=C(C)C1CCC(C)=CC1c1c(O)cc(CCCCC)c(C(=O)OCC(O)CCC)c1O (centres unmarked) [2-hydroxypentyl cannabidiolate] |  |  |  | inhibit |  | strong activation | inhibition |  |  |  |  |  |  |  |  |  |  |  |  |  |
| C=C(C)[C@@H]1CCC(C)=C[C@H]1c1c(O)cc(CCCCC)c(C(=O)OCC(O)CO)c1O (some centres unmarked) [Compound IV, Glyceryl cannabidiolate] | 2170 nM | 90.2 ± 3.8% | + | CB1 agonists | + | CB2 agonists | inhibition | 277 ± 78.7 nM | 7.8 | 101.6 ± 0.5% | weak activation | strong activation |  |  |  |  |  |  |  |  |
| C=C(C)[C@@H]1CCC(C)=CC1c1c(O)cc(CCCCC)c(C(=O)OCCNS(C)(=O)=O)c1O (some centres unmarked) [XIII, N-Methyl-sulfonyl cannabidiolate] | 538 ± 53.9 nM | 98.9 ± 7.8% | − | CB1 antagonists | + | CB2 agonists | strong inhibition | 0.012 ± 0.001 nM | 22.5 | 104.9 ± 4.8% |  |  | high binding affinity | high binding affinity | antagonistic effect | agonistic effect | strong inhibition |  |  |  |
| C=C(C)[C@@H]1CCC(C)=CC1c1c(O)cc(CCCCC)c(C(=O)OCCCCCC)c1O (some centres unmarked) [XI, Hexyl cannabidiolate] | 538 ± 53.9 nM | 92.2 ± 1.7% |  | CB1 agonists |  | CB2 agonists |  | 510 ± 29 nM | 1 | 97.2 ± 3.4% |  |  |  |  |  |  |  |  |  |  |
| C=C(C)C1CCC(C)=CC1c1c(O)cc(CCCCC)c(C(=O)OCCCCCC)c1O (centres unmarked) [Hexyl cannabidiolate] |  |  | + | antagonism | + | antagonism |  |  |  |  |  |  |  |  |  |  |  |  |  |  |
| C=C(C)[C@@H]1CCC(C)=C[C@H]1c1c(O)cc(CCCCC)c(C(=O)OCCO)c1O [Compound III, 2-hydroxyethyl cannabidiolate] | 3920 nM | 77.3 ± 6.5% | − | CB1 antagonists | + | CB2 agonists | inhibition | 375 ± 47.7 nM | 10.4 | 90.3 ± 2.4% |  |  |  |  |  |  |  | inhibit | strong activation |  |
| C=C(C)[C@@H]1CCC(C)=CC1c1c(O)cc(CCCCC)c(C(=O)OC2CCCCC2)c1O (some centres unmarked) [XII, Cyclohexyl cannabidiolate] | 538 ± 53.9 nM | 81.5 ± 6.8% | − | CB1 antagonists | 0 |  |  | 67 ± 4 nM | 37 | 99.2 ± 2.3% |  |  |  |  |  |  |  |  |  | antagonistic effect |
